Test results taken from ChEMBL document CHEMBL4480380, “Identification and biological evaluation of novel benzothiazole derivatives bearing a pyridine-semicarbazone moiety as apoptosis inducers via activation of procaspase-3 to caspase-3” (Medchemcomm, 2019).

Legend:
[1] = Selectivity ratio of IC50 for human MCF7 cells to IC50 for human procaspase-3 over-expressing U937 cells; format: functional
[2] = tested on: U-937; test: Antiproliferative activity against human procaspase-3 over-expressing U937 cells after 24 hrs by CCK-8 assay; format: functional, cell-based; conditions: U-937, 24 h
[3] = tested on: MCF7; test: Antiproliferative activity against human MCF7 cells after 24 hrs by CCK-8 assay; format: functional, cell-based; conditions: MCF7, 24 h
[4] = tested on: U-937; test: Induction of apoptosis in human U937 cells assessed as caspase-3 activity at 30 uM using Ac-DEVD-AFC as substrate preincubated for 16 hrs followed by substrate addition and measured after 60 mins by fluorescence assay (reference value: 7+/- 1%); format: functional

Row | SMILES | IC50 [2] [µM] | IC50 [3] [µM] | Ratio IC50 [1] | Activity [4] [%]
1 | CCN(CC)Cc1ccc2nc(NC(=O)NN=C(c3ccccn3)c3ccccn3)sc2c1 | 9.1 | > 40 | 4.3 | 119
2 | CC1CCN(Cc2ccc3nc(NC(=O)N/N=C/c4ccccn4)sc3c2)CC1 | 21.5 | > 40 | 1.6 | 
3 | CCN(CC)Cc1ccc(NC(=O)NN=C(c2ccccc2)c2ccccc2)cc1 | > 25 | 13.1 | <1 | 20
4 | CCN(CC)Cc1ccc2nc(NC(=O)N/N=C(\C)c3ccccn3)sc2c1 | 15.6 | > 40 | 2.6 | 
5 | C=CCc1cccc(/C=N/NC(=O)CN2CCN(Cc3ccccc3)CC2)c1O [PAC-1] | 6 | > 40 | 6.6 | 100

The next lines start with results.

Row | IC50 [2] [µM] | IC50 [3] [µM] | SMILES | Ratio IC50 [1] | Activity [4] [%]
6 | > 25 | 13.3 | CC1CCN(Cc2ccc(NC(=O)NN=C(c3ccccc3)c3ccccc3)cc2)CC1 | <1 | 58
7 | 20.1 | > 40 | C/C(=N\NC(=O)Nc1nc2ccc(CN(C)C)cc2s1)c1ccccn1 | 2 | 68
8 | > 40 | > 40 | C/C(=N\NC(=O)Nc1nc2ccc(CN(C)C)cc2s1)c1cnccn1 |  | 
9 | > 40 | > 40 | CC1CCN(Cc2ccc(NC(=O)NN=C(c3ccccn3)c3ccccn3)cc2)CC1 |  | 
10 | > 40 | > 40 | C/C(=N\NC(=O)Nc1nc2ccc(CN3CCC(C)CC3)cc2s1)c1ccccc1 |  | 
11 | > 40 | > 40 | C/C(=N\NC(=O)Nc1ccc(CN2CCC(C)CC2)cc1)c1ccccn1 |  | 
12 | > 40 | > 40 | CCN(CC)Cc1ccc(NC(=O)N/N=C(\C)c2ccccn2)cc1 |  | 
13 | > 40 | > 40 | CCN(CC)Cc1ccc2nc(NC(=O)N/N=C(\C)c3cnccn3)sc2c1 |  | 
